Source: patent US20220160712A1, “METHODS OF TREATING RHEUMATOID ARTHRITIS AND FOR PREDICTING THE RESPONSE TO METHOTREXATE” (CHAN ZUCKERBERG BIOHUB, INC., priority 2020, published 2022)

Test system: complex human gut microbial community
Experiment: Ex vivo incubation of RA patient stool samples with MTX
Format: cell-based
Procedure: All work was carried out in an anaerobic chamber. For each patient, stool was aliquoted into a pre-equilibrated cryovial, diluted in reduced PBS at 10 ml per 1 gram of stool, and vortexed to homogenize the sample. The sample was spun at ˜20 g for 1 minute on a mini-centrifuge to facilitate settling of sediment, and the sediment-free supernatant was then aliquoted into a new pre-equilibrated cryovial for evaluation of ex vivo growth. Growth was evaluated by inoculating liquid BHI with 1:50 dilution of this fecal slurry, with OD600 readings performed every 15 minutes for 48 hours with a 2-minute shake prior to each reading. Samples were treated with MTX 100 μg/ml or an equal volume of DMSO at time zero. Each patient's fecal slurry and treatment was evaluated in quadruplicate. Samples from four individuals (Donors 2, 4, 5, and 6) underwent 16S sequencing and analysis at 0 and 24 hours after of treatment with either DMSO or MTX treatments (4 replicates per treatment group) as described in the section titled “16S-seq of humanized mouse gut microbiota.”
Reads that were not already demultiplexed were demultiplexed using QIIME (Caporaso et al., 2010) v1.9.1 (split_libraries_fastq.py). For all reads except NYU RA patient samples, QIIME2 (Bolyen et al., 2019)(v 2020.2) was used to trim reads, denoise the data, and create a feature table using the following commands: qiime cutadapt trim-paired, qiime dada2 denoise-paired, qiime feature-table filter-samples. Within QIIME2, taxonomy was assigned using the DADA2 et al., (2016), Nat Methods 13, 581-583) implementation of the RDP Naïve Bayesian classifier (Wang, Q., et al., (2007), Appl Environ Microbiol 73, 5261-5267) using the DADA2-formatted SILVA v128 training set; taxonomic assignments to the species level were chosen by exact match of the ASV to the reference database, and where multiple matches were present, all are reported. For figures and in the text, genus and species assignments are reported when available, and when neither was available, the family taxonomic assignment was included; a unique ASV identifier is also reported. This ASV identifier can be used to look up the full taxonomic assignment from kingdom to species and the associated sequence variant in Table S2B. A phylogenetic tree was constructed in QIIME2 using the command: phylogeny align-to-tree-mafft-fasttree. The QIIME2R package was used to import QIIME2 artefacts into R (https://github.com/jbisanz/qiime2R). For RA patient samples from NYU, reads were demultiplexed using QIIME (Caporaso et al., 2010) v1.9.1 (split_libraries_fastq.py) before denoising and processing with DADA2 (Callahan et al., 2016a) v1.1.5 under MRO v3.2.5. Taxonomy was assigned using the DADA2 implementation of the RDP classifier (Wang et al., 2007) using the DADA2-formatted SILVA v128 training set (benjjneb.github.io/dada2/assign.html). Low abundance taxa were filtered out […] as well as ASVs that could not be assigned taxonomy past the kingdom level. Diversity metrics were generated using Vegan (v2.5-6) and Phyloseq (v1.30.0) (McMurdie, P.J., and Holmes, S. (2013), PLoS One 8, e61217), with principal coordinate analysis (PCoA) or principal components analysis (PCA) carried out with Ape (v5.3) or Vegan, respectively. Analyses were carried out on either: (1) centered log2-ratio (clr) normalized taxonomic abundances calculated as Aclr=[log2(A1/ga), log2(A2/ga), . . . log2(An/ga),], where A is a vector of non-zero read counts and ga is the geometric mean of all values of A, or (2) relative abundance calculated as proportion of reads. ANOSIM and PERMANOVA were used to detect changes in community composition using counts from rarefied data and Bray-Curtis distances. DESeq2 (v1.26.0) (Love, M. I., et al., (2014), Genome Biol 15, 550) was used to determine differentially abundant taxa on raw count data. Some ASVs were reported to have log2 fold changes that were 20 or higher. […]

[1] = MTX 100 μg/ml, 24 hours, 4 ex vivo communities, padj<0.01

CN(Cc1cnc2nc(N)nc(N)c2n1)c1ccc(C(=O)N[C@@H](CCC(=O)O)C(=O)O)cc1 [MTX, methotrexate]
number of genera with significant shifts in abundance (MTX 100 μg/ml): 17
Actinobacteria abundance [1]: increased
Bacteroidetes abundance [1]: decreased
lag phase (MTX 100 μg/ml, 48 hours): significant delay
carrying capacity (MTX 100 μg/ml, 48 hours, p=1.9×10-6, paired Student's t-test): significant decrease
richness (16S-seq of endpoint samples) (MTX 100 μg/ml, 4 patient samples): significant decrease
number of ASVs with significant shifts in abundance (MTX 100 μg/ml, padj<0.01, DESeq): 20
growth of complex microbial communities (stool of 30 MTX-naive patients, MTX 100 μg/ml vs vehicle, 48 hours): significantly impaired
